# Source: article PMC7029851, “Antibacterial activity of novel dual bacterial DNA type II topoisomerase inhibitors” (PLoS ONE, 2020)
# Where two headings read alike, the source gives them in different places.
# Tests used:
# [1] = system: A. baumannii APV00473; experiment: MIC, broth microdilution; assay type: cell-based; conditions: Acinetobacter baumannii; A. baumannii APV00473, ciprofloxacin-resistant
# Description: (§1) MICs were determined by the broth microdilution method (the agar dilution method was used only for N. gonorrhoeae) according to CLSI guidelines.
# [2] = system: A. baumannii ATCC 19606; experiment: MIC, broth microdilution; assay type: cell-based; conditions: Acinetobacter baumannii, ATCC19606; A. baumannii ATCC 19606, ciprofloxacin-susceptible
# Description: as §1
# [3] = system: E. coli 4SI; experiment: MIC, broth microdilution; assay type: cell-based; conditions: Escherichia coli, ciprofloxacin-resistant
# Description: as §1
# [4] = system: S. pyogenes APV00074; experiment: MIC, broth microdilution; assay type: cell-based; conditions: Streptococcus pyogenes; S. pyogenes APV00074, ciprofloxacin-susceptible
# Description: as §1
# [5] = system: S. pyogenes APV00083; experiment: MIC, broth microdilution; assay type: cell-based; conditions: Streptococcus pyogenes; S. pyogenes APV00083, ciprofloxacin-susceptible
# Description: as §1
# [6] = system: C. difficile ATCC 700057; experiment: MIC, broth microdilution; assay type: cell-based, Clostridium difficile; conditions: Clostridioides difficile, ATCC700057
# Description: MICs were determined by the broth microdilution method (the agar dilution method was used only for N. gonorrhoeae) according to CLSI guidelines. […] The MIC values of antibiotics used in clinical practice were interpreted according to the susceptibility interpretive criteria reported in the appropriate CLSI Tables (M100-S25, CLSI, 2015).
# [7] = system: H. influenzae AcrA- mutant; experiment: microbe, parasite or virus in culture; assay type: cell-based; conditions: Haemophilus influenzae
# Summary of the method: (§2)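 MICs against efflux-deficient mutant strains were determined by broth microdilution following CLSI guidelines.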
# [8] = system: K. pneumoniae AcrAB- mutant; experiment: microbe, parasite or virus in culture; assay type: cell-based; conditions: Klebsiella pneumoniae
# Summary of the method: as §2
# [9] = system: S. aureus clinical isolates (n = 10); experiment: microbe, parasite or virus in culture; assay type: cell-based, Staphylococcus aureus
# Description: (§3) The bacterial reference strains used in this study were purchased from ATCC (American Type Culture Collection) via LGC Standards (Middlesex, UK). […] Clinical MDR isolates were provided by Aptuit, the IHMA Europa Sàrl repository (Epalinges, Switzerland) and the Statens Serum Institute (Copenhagen, Denmark).
# as §1
# (§4) The results obtained using clinical isolates are reported as MIC50 and MIC90 values.
# [10] = system: C. difficile clinical isolates (n = 21); experiment: MIC, multidrug-resistant clinical isolates; assay type: cell-based, Clostridium difficile; conditions: Clostridioides difficile, C. difficile clinical isolates (n = 21)
# Description: as §3, §1, §4
# [11] = system: E. coli clinical isolates (n = 36); experiment: MIC, multidrug-resistant clinical isolates; assay type: cell-based, Escherichia coli; conditions: Escherichia coli, E. coli MDR clinical isolates (n = 36)
# Description: as §3, §1, §4
# [12] = system: A. baumannii clinical isolates (n = 10); experiment: microbe, parasite or virus in culture; assay type: cell-based, Acinetobacter baumannii
# Description: as §3, §1, §4
# [13] = system: S. aureus ATCC 29213; experiment: Minimal bactericidal concentration; assay type: cell-based, Staphylococcus aureus
# Description: (§5) Minimal bactericidal concentrations (MBCs) were determined according to the procedure described by Knapp. Viable counts were performed after plates were incubated at 37°C for 24 hours. The MBC was defined as the lowest concentration that reduced the viability of the initial bacterial inoculum by ≥99.9%.
# [14] = system: S. aureus BAA-1720; experiment: Minimal bactericidal concentration; assay type: cell-based, Staphylococcus aureus
# Description: as §5
# [15] = system: S. aureus ATCC 29213; experiment: Time-kill assay; assay type: cell-based, Staphylococcus aureus; conditions: 1× to 4× MIC (compound 1 also 8× and 16× MIC), over 24 hours
# Description: (§6) Time-kill experiments were performed according to the procedure reported by Knapp. […] A drug-free control was included in each experiment. The bacterial cultures were standardized to obtain an initial inoculum that ranged from 5×10^5 to 5×10^6 CFU/ml. The cultures were incubated at 37°C in a shaking bath. At 0, 2, 4, 8 and 24-hour intervals, viable counts were performed by spotting (in triplicate) 10 μl aliquots of suitable dilutions of the cultures onto Mueller-Hinton agar (MHA, Oxoid, Basingstoke, UK) plates. After incubation at 37°C for 24 hours, the bactericidal activity, namely, the ability to reduce the initial inoculum by 3 log10 CFU/ml, was assessed for each tested concentration over time.
# [16] = system: S. aureus ATCC BAA-1720; experiment: Time-kill assay; assay type: cell-based, Staphylococcus aureus; conditions: 1× to 4× MIC, over 24 hours
# Description: as §6
# [17] = system: E. coli ATCC 25922; experiment: Post-antibiotic effect (PAE); assay type: cell-based, Escherichia coli; conditions: 1× and 4× MIC
# Description: (§7) A drug-free control was included in each experiment. After being exposed to the drug for 1 hour, viable counts were conducted in triplicate by spotting aliquots (10 μl) of suitable dilutions onto MHA plates. The drugs were removed by diluting the bacterial cultures (1:1000) in Cation-Adjusted Mueller-Hinton Broth (CAMHB; Sigma-Aldrich). The diluted cultures were incubated in a shaking bath at 37°C. To monitor the ongoing suppression of bacterial growth over time (5 hours), aliquots from each broth culture were periodically collected, diluted and plated to perform subsequent viable counts (in triplicate).
# [18] = system: S. aureus ATCC 29213; experiment: Post-antibiotic effect (PAE); assay type: cell-based, Staphylococcus aureus; conditions: 1-hour exposure, range over 1×, 4× and 16× MIC
# Description: as §7
# [19] = system: CYP1A, CYP2B6, CYP2C8, CYP2C9, CYP2D6 and CYP3A4; experiment: Inhibition of P450 isoenzymes; assay type: in vitro ADME; conditions: human, read-out: % inhibition of CYP450 isoenzymes other than CYP2C19
# Source text: (§8) Inhibition of P450 isoenzymes.
# [20] = target: CYP2C19 (Homo sapiens, UniProt P33261); experiment: Inhibition of P450 isoenzymes; assay type: in vitro ADME
# Source text: as §8
# [21] = system: S. aureus ATCC 29213 and S. aureus BAA-1720; experiment: MIC in the presence of 20% human serum
# [22] = S. aureus MDR clinical isolates (n = 10)
# CYP2C19, sequence (P33261 whole entry): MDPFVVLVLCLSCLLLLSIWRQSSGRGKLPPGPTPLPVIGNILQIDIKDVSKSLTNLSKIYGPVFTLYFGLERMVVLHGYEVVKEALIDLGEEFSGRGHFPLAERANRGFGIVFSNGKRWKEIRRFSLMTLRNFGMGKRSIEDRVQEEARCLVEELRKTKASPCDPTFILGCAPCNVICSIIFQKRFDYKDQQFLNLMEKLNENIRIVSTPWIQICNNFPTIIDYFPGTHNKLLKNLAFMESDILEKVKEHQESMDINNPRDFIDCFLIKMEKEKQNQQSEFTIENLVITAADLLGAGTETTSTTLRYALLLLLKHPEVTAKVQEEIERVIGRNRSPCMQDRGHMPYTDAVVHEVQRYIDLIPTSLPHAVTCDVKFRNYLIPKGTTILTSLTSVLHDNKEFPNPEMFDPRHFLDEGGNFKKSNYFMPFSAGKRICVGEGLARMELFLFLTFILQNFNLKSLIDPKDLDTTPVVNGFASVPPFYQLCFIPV
smiles,measurement,setting,value
"Cl.N#Cc1ccc2ccc(=O)n([C@H]3CC[C@H](NCc4cc5c(=O)oc6ccc(F)cc6c5[nH]4)CC3)c2c1 [Compound 2, 1-(trans-4-{[(8-fluoro-4-oxo-1,4-dihydro[1]benzopyrano[4,3-b]pyrrol-2-yl)methyl]amino}cyclohexyl)-2-oxo-1,2-dihydroquinoline-7-carbonitrile hydrochloride]",MIC,[1],0.5 µg/mL
same,MIC,[2],0.12 µg/mL
same,MIC,[3],0.5 µg/mL
same,MIC,[4],≤ 0.06 µg/mL
same,MIC,[5],≤ 0.06 µg/mL
same,MIC,[6],0.25 µg/mL
same,MIC,[7],≤ 0.016 µg/mL
same,MIC,[8],≤ 0.016 µg/mL
same,MIC50,[9]; [22],≤ 0.06 µg/mL
same,MIC90,[9]; [22],≤ 0.06 µg/mL
same,MIC range,[9]; [22],≤0.06 µg/mL
same,MIC,"[9]; Staphylococcus aureus, MRSA, S. aureus APV0063, MRSA",≤ 0.06 µg/mL
same,MIC,"[9]; Staphylococcus aureus, MRSA, S. aureus APV0064, MRSA",≤ 0.06 µg/mL
same,MIC,"[9]; Staphylococcus aureus, MRSA, S. aureus APV0065, MRSA",≤ 0.06 µg/mL
same,MIC,"[9]; Staphylococcus aureus, S. aureus APV00045, M (macrolide resistance)",≤ 0.06 µg/mL
same,MIC,"[9]; Staphylococcus aureus, S. aureus APV0048, MLSi",≤ 0.06 µg/mL
same,MIC,"[9]; Staphylococcus aureus, S. aureus APV0049, MLSi",≤ 0.06 µg/mL
same,MIC,"[9]; Staphylococcus aureus, S. aureus APV0052, MLSc",≤ 0.06 µg/mL
same,MIC,"[9]; Staphylococcus aureus, S. aureus APV0053, MLSc",≤ 0.06 µg/mL
same,MIC,"[9]; Staphylococcus aureus, S. aureus APV00280, M (macrolide resistance)",≤ 0.06 µg/mL
same,MIC,"[9]; Staphylococcus aureus, S. aureus APV00281, M (macrolide resistance)",≤ 0.06 µg/mL
same,MIC50,"[9]; Staphylococcus aureus, S. aureus MDR clinical isolates (n = 10), read-out: MIC50",≤ 0.06 µg/mL
same,MIC90,"[9]; Staphylococcus aureus, S. aureus MDR clinical isolates (n = 10), read-out: MIC90",≤ 0.06 µg/mL
same,MIC50,[10]; read-out: MIC50,0.12 µg/mL
same,MIC90,[10]; read-out: MIC90,0.25 µg/mL
same,MIC,[10]; read-out: MIC range,0.06 to 0.25 µg/mL
same,MIC,[11],0.5 to 4 µg/mL
same,MIC50,[11]; read-out: MIC50,1 µg/mL
same,MIC90,[11]; read-out: MIC90,2 µg/mL
same,MIC range,[12],≤0.06 to 0.12 µg/mL
same,MIC50,[12]; Acinetobacter baumannii,≤ 0.06 µg/mL
same,MIC90,[12]; Acinetobacter baumannii,0.12 µg/mL
same,MBC/MIC,[13],16
same,MBC,"[13]; Staphylococcus aureus, ATCC29213, ≥99.9% reduction of inoculum",0.5 µg/mL
same,MBC/MIC,[13]; listed as compound 2,≥ 16
same,MBC/MIC,[14],125
same,MBC,"[14]; Staphylococcus aureus, BAA1720, ≥99.9% reduction of inoculum",2 µg/mL
same,MBC/MIC,[14]; listed as compound 2,≥ 16
same,Bactericidal activity in time-kill (reduction of 3 log10 CFU/ml),[15],no bactericidal activity
same,Bactericidal activity in time-kill (reduction of 3 log10 CFU/ml),[16],no bactericidal activity
same,PAE compared with ciprofloxacin,[17],approximately two-fold greater
same,PAE,[18],73 to 78 min
same,inhibition at 10 µM,[19],≤ 35%
same,inhibition at 10 µM,[20],69%
same,Change of MIC in the presence of 20% human serum,[21],not modified
